Measurements: publication PMC3948918 (PLoS ONE, 2014)
Like-named read-outs stand apart in the source and are kept apart here. Numbered stars: 1 amine (or outer) side, 2 acyl side, 3 side chain; on linkers, the order of the positions; unused ones are H or OH. Bridge positions count the residues as written; N and C are the ends. Square brackets hold non-standard residues; d marks the D form. Peptide text beside a SMILES is read from it. Adda = CO[C@@H](Cc1ccccc1)[C@@H](C)/C=C(C)/C=C/[C@H](N[*:1])[C@H](C)C(=O)[*:2]; dAsp(3S-Me) = C[C@H](C(=O)[*:3])[C@@H](N[*:1])C(=O)[*:2]; d(γGlu) = O=C(O)[C@@H](CCC(=O)[*:2])N[*:1]; NMeDha = C=C(NC)C(=O)O

Tests used:
OATP1B1 = test: in vitro; settings: human
[1] = system: OATP1B3-expressing RKO cells
[2] = system: OATP1B1-expressing RKO cells; settings: read-out: IC50 RKO B1
[3] = system: OATP1B1-expressing HeLa cells; settings: read-out: IC50 HeLa B1
[4] = system: OATP1B3-expressing HeLa cells; settings: for IC50: read-out: IC50 HeLa B3
HeLa Control cells [5] = settings: read-out: IC50 HeLa Control
[6] = system: OATP1B1- and OATP1B3-expressing HeLa or RKO cell lines
[7] = system: OATP1B1-expressing HeLa cells; settings: cited from earlier work
[8] = system: OATP1B3-expressing HeLa cells; settings: cited from earlier work
HeLa Control cells [9] = settings: cited from earlier work

| Structure (SMILES) | Ratio IC50 B1/B3 RKO [1] | IC50 [2] [nM] | IC50 [3] [nM] | Ratio IC50 B1/B3 HeLa [4] | IC50 [4] [nM] | IC50 (HeLa Control cells [5]) [nM] | IC50 ([1]; read-out: IC50 RKO B3) [nM] | IC50 (RKO control cells; read-out: IC50 RKO control) [nM] | transporter selectivity (in words) [6] | further results |
| --- | --- | --- | --- | --- | --- | --- | --- | --- | --- | --- |
| C/C=C1/NC(=O)CC[C@H](C(=O)O)NC(=O)[C@@H](C)[C@H](/C=C/C(C)=C/[C@H](C)[C@H](Cc2ccccc2)OC)NC(=O)[C@H](Cc2c[nH]c3ccccc23)NC(=O)C[C@H](C(=O)O)NC(=O)[C@H](CCc2ccc(O)cc2)NC(=O)[C@@H](C)NC1=O [compound 20, [D-Asp^3,(E)-Dhb^7]MC-HtyW] | 1.9 |  |  |  |  |  |  |  |  | IC50 (OATP1B1): 4.9 nM; IC50 ([1]; human): 2.57 nM; IC50 (RKO control cells; 3 h): > 100 nM |
| CC=C1C(=O)N[C@@H](C(=O)O)[C@H](C)C(=O)N[C@@H](CCCNC(=N)N)C(=O)N[C@@H](/C=C/C(C)=C/[C@H](C)[C@H](Cc2ccccc2)OC)[C@H](C)C(=O)N[C@@H](C(=O)O)CCC(=O)N1C [compound 23, Nodularin] | < 0.1 | 10 | 8.4 | < 0.1 | > 100 | > 100 | > 100 | > 100 |  |  |
| C/C=C1/NC(=O)CC[C@H](C(=O)O)NC(=O)[C@@H](C)[C@H](/C=C/C(C)=C/[C@H](C)[C@H](Cc2ccccc2)OC)NC(=O)[C@H](Cc2ccc(O)cc2)NC(=O)C[C@H](C(=O)O)NC(=O)[C@H](CC(C)C)NC(=O)[C@@H](C)NC1=O [compound 6, [D-Asp^3,(E)-Dhb^7]MC-LY] |  |  | 0.47 | 2.6 | 0.18 | > 10 |  |  | weakly OATP1B3 selective | IC50 values (potency grouping) [6]: sub-nanomolar |
| C/C=C1/NC(=O)CC[C@H](C(=O)O)NC(=O)[C@@H](C)[C@H](/C=C/C(C)=C/[C@H](C)[C@H](Cc2ccccc2)OC)NC(=O)[C@H](Cc2c[nH]c3ccccc23)NC(=O)C[C@H](C(=O)O)NC(=O)[C@H](CC(C)C)NC(=O)[C@@H](C)NC1=O [compound 9, [D-Asp^3,(E)-Dhb^7]-MC-LW] | 1.4 | 11 |  |  |  |  | 7.7 | > 1000 | weakly OATP1B3 selective |  |
| C=C1C(=O)N[C@H](C)C(=O)N[C@@H](CC(C)C)C(=O)N[C@@H](C(=O)O)CC(=O)N[C@@H](CCCNC(=N)N)C(=O)N[C@@H](/C=C/C(C)=C/[C@H](C)[C@H](Cc2ccccc2)OC)[C@H](C)C(=O)N[C@@H](C(=O)O)CCC(=O)N1C [compound 2, [D-Asp^3]MC-LR] | 0.2 | 7.3 |  |  |  |  | 31.3 | > 1000 | least OATP1B3 selective |  |
| C/C=C1/NC(=O)CC[C@H](C(=O)O)NC(=O)[C@@H](C)[C@H](/C=C/C(C)=C/[C@H](C)[C@H](Cc2ccccc2)OC)NC(=O)[C@H](CCCNC(=N)N)NC(=O)C[C@H](C(=O)O)NC(=O)[C@H](Cc2ccc(O)cc2)NC(=O)[C@@H](C)NC1=O [compound 15, [D-Asp^3,(E)-Dhb^7]MC-YR] | 4.0 | 108 |  |  |  |  | 27.1 | > 1000 | most OATP1B3 selective |  |
| C=C1C(=O)N[C@H](C)C(=O)N[C@@H](Cc2ccc(O)cc2)C(=O)N[C@@H](C(=O)O)CC(=O)N[C@@H](CCCNC(=N)N)C(=O)N[C@@H](/C=C/C(C)=C/[C@H](C)[C@H](Cc2ccccc2)OC)[C@H](C)C(=O)N[C@@H](C(=O)O)CCC(=O)N1C [compound 14, [D-Asp^3]MC-YR] | 3.1 | 149 |  |  |  |  | 48 | > 1000 |  |  |
| C=C1C(=O)N[C@H](C)C(=O)N[C@@H](Cc2ccc(O)cc2)C(=O)N[C@@H](C(=O)O)[C@H](C)C(=O)N[C@@H](CCCNC(=N)N)C(=O)N[C@@H](/C=C/C(C)=C/[C@H](C)[C@H](Cc2ccccc2)OC)[C@H](C)C(=O)N[C@@H](C(=O)OC)CCC(=O)N1C [compound 22, [D-Glu(OMe)^6]MC-YR] | 2.6 | 595 |  |  |  |  | 227 | > 1000 |  | IC50 ([6]; read-out: IC50 values (potency grouping)): > 100 nM |
| C=C1C(=O)N[C@H](C)C(=O)N[C@@H](CC(C)C)C(=O)N[C@@H](C(=O)O)[C@H](C)C(=O)N[C@@H](Cc2c[nH]c3ccccc23)C(=O)N[C@@H](/C=C/C(C)=C/[C@H](C)[C@H](Cc2ccccc2)OC)[C@H](C)C(=O)N[C@@H](C(=O)O)CCC(=O)N1C [compound 8, LW, reference compound] (W[Adda][d(γGlu)][NMeDha][dA]L[dAsp(3S-Me)]-OH; lactam N-7) | 1.4 | 0.4 | 0.22 | 1.4 | 0.16 | > 1000 | 0.29 | > 1000 | weakly OATP1B3 selective | IC50 values (potency grouping) [6]: sub-nanomolar |
| C=C1C(=O)N[C@H](C)C(=O)N[C@@H](CCCNC(=N)N)C(=O)N[C@@H](C(=O)O)[C@H](C)C(=O)N[C@@H](Cc2ccc(O)cc2)C(=O)N[C@@H](/C=C/C(C)=C/[C@H](C)[C@H](Cc2ccccc2)OC)[C@H](C)C(=O)N[C@@H](C(=O)O)CCC(=O)N1C [compound 16, MC-RY] (Y[Adda][d(γGlu)][NMeDha][dA]R[dAsp(3S-Me)]-OH; lactam N-7) |  |  | 77 | 30.8 | 2.5 | > 1000 |  |  | most OATP1B3 selective |  |
| C/C=C1/NC(=O)CC[C@H](C(=O)O)NC(=O)[C@@H](C)[C@H](/C=C/C(C)=C/[C@H](C)[C@H](Cc2ccccc2)OC)NC(=O)[C@H](CCCNC(=N)N)NC(=O)C[C@H](C(=O)O)NC(=O)[C@H](CC(C)CC)NC(=O)[C@@H](C)NC1=O (stereo partly drawn) [compound 4, [D-Asp^3,(E)-Dhb^7]MC-HilR] | 15.0 |  |  |  |  |  |  |  | most OATP1B3 selective | IC50 (OATP1B1): 56.9 nM; IC50 ([1]; human): 3.8 nM; IC50 (RKO control cells; 3 h): 993 nM |
| CO[C@@H](Cc1ccccc1)[C@@H](C)/C=C(C)/C=C/[C@@H]1NC(=O)[C@H](CCCCNC(=N)N)NC(=O)C[C@H](C(=O)O)NC(=O)[C@H](Cc2ccc(O)cc2)NC(=O)[C@@H](C)NC(=O)[C@H](CO)N(C)C(=O)CC[C@H](C(=O)O)NC(=O)[C@H]1C [compound 21, [D-Asp^3,MSer^7]MC-YHar] | 1.6 |  |  |  |  |  |  |  |  | IC50 ([6]; human): > 100 nM; IC50 (OATP1B1): 625 nM; IC50 ([1]; human): 385 nM; IC50 (RKO control cells; 3 h): > 1000 nM |
| C=C1C(=O)N[C@H](C)C(=O)N[C@@H](CC(C)CC)C(=O)N[C@@H](C(=O)O)CC(=O)N[C@@H](CCCNC(=N)N)C(=O)N[C@@H](/C=C/C(C)=C/[C@H](C)[C@H](Cc2ccccc2)OC)[C@H](C)C(=O)N[C@@H](C(=O)O)CCC(=O)N1C (stereo partly drawn) [compound 3, [D-Asp^3]MC-HilR] | 0.4 |  |  |  |  |  |  |  | least OATP1B3 selective | IC50 (OATP1B1): 57 nM; IC50 ([1]; human): 142 nM; IC50 (RKO control cells; 3 h): > 1000 nM |
| C=C1C(=O)N[C@H](C)C(=O)N[C@@H](Cc2ccc(O)cc2)C(=O)N[C@@H](C(=O)O)[C@H](C)C(=O)N[C@@H](Cc2ccc(O)cc2)C(=O)N[C@@H](/C=C/C(C)=C/[C@H](C)[C@H](Cc2ccccc2)OC)[C@H](C)C(=O)N[C@@H](C(=O)O)CCC(=O)N1C [compound 17, MC-YY] (Y[Adda][d(γGlu)][NMeDha][dA]Y[dAsp(3S-Me)]-OH; lactam N-7) |  |  | 1.5 | 1.9 | 0.8 | 259 |  |  |  | IC50 values (potency grouping) [6]: sub-nanomolar |
| C=C1[C@@H](O)[C@@H]2O[C@]3(CC[C@H](/C=C/[C@@H](C)[C@@H]4CC(C)=C[C@@]5(O[C@H](C[C@@](C)(O)C(=O)O)CC[C@H]5O)O4)O3)CC[C@H]2O[C@@H]1[C@@H](O)C[C@H](C)[C@H]1O[C@@]2(CCCCO2)CC[C@H]1C [compound 24, okadaic acid] |  |  |  |  |  |  |  |  |  | IC50 [7]: 2.2 nM; IC50 [8]: 3 nM; Ratio IC50 B1/B3 HeLa [8]: 0.7; IC50 (HeLa Control cells [9]): 7.8 nM |
| C=C1C(=O)N[C@H](C)C(=O)N[C@@H](CC(C)C)C(=O)N[C@@H](C(=O)O)[C@H](C)C(=O)N[C@@H](Cc2ccc(O)cc2)C(=O)N[C@@H](/C=C/C(C)=C/[C@H](C)[C@H](Cc2ccccc2)OC)[C@H](C)C(=O)N[C@@H](C(=O)O)CCC(=O)N1C [compound 5, MC-LY] (Y[Adda][d(γGlu)][NMeDha][dA]L[dAsp(3S-Me)]-OH; lactam N-7) |  |  | 0.16 | 0.8 | 0.21 | > 10 |  |  | least OATP1B3 selective | IC50 values (potency grouping) [6]: sub-nanomolar |
| C=C1C(=O)N[C@H](C)C(=O)N[C@@H](CCCNC(=N)N)C(=O)N[C@@H](C(=O)O)[C@H](C)C(=O)N[C@@H](Cc2ccccc2)C(=O)N[C@@H](/C=C/C(C)=C/[C@H](C)[C@H](Cc2ccccc2)OC)[C@H](C)C(=O)N[C@@H](C(=O)O)CCC(=O)N1C [compound 12, MC-RF] (F[Adda][d(γGlu)][NMeDha][dA]R[dAsp(3S-Me)]-OH; lactam N-7) | 17.2 | 58.3 |  |  |  |  | 3.38 | > 1000 | most OATP1B3 selective |  |
| C=C1C(=O)N[C@H](C)C(=O)N[C@@H](CC(C)C)C(=O)N[C@@H](C(=O)O)[C@H](C)C(=O)N[C@@H](CCCNC(=N)N)C(=O)N[C@@H](/C=C/C(C)=C/[C@H](C)[C@H](Cc2ccccc2)OC)[C@H](C)C(=O)N[C@@H](C(=O)O)CCC(=O)N1C [compound 1, MC-LR, reference compound] (R[Adda][d(γGlu)][NMeDha][dA]L[dAsp(3S-Me)]-OH; lactam N-7) | 0.3 | 8.2 | 1 | 0.2 | 5.1 | > 1000 | 26.9 | > 1000 | least OATP1B3 selective |  |
